From paper PMC10763615, “Identification and engineering of potent cyclic peptides with selective or promiscuous binding through biochemical profiling and bioinformatic data analysis” (RSC Chemical Biology, 2023)
Where two headings read alike, the source gives them in different places. Positions of bridges follow the written chain, without caps; N, C: chain ends. Residues, ends and D or L forms follow the SMILES beside them.

What was measured:
Assay type in all cases: binding
[1] = target: T1, FGF-R1C ECD (Homo sapiens, UniProt P11362); assay: biochemical; set-up: DNA constructs for the extracellular domain (ECD) of human FGF-; HPC4 (C); made in house; host or cells: HEK 293-6E
T1 sequence (P11362 22-376 limits assumed): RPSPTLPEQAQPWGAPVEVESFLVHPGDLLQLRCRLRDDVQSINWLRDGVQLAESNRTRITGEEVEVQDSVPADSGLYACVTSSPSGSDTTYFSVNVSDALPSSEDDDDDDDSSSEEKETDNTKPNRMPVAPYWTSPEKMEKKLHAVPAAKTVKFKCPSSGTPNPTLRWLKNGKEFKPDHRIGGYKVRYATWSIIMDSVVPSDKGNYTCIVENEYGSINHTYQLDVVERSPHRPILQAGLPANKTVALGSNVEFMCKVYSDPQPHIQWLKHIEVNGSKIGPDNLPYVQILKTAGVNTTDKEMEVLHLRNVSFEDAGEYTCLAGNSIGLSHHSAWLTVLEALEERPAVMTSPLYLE
How it was run: (§1)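 BLI, streptavidin sensors loaded with biotinylated receptor ECD. Single-point: ~1 μM crude peptide, PBS pH7.4/0.05% Tween-20/0.01% BSA; association then dissociation in buffer. KD corrected for UPLC-CAD-determined concentration.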

[2] = target: T2, FGF-R3C ECD (Homo sapiens, UniProt P22607); assay: biochemical; set-up: DNA constructs for the extracellular domain (ECD) of human FGF-; HPC4 (C); made in house; host or cells: HEK 293-6E
T2 sequence (P22607 23-375 limits assumed): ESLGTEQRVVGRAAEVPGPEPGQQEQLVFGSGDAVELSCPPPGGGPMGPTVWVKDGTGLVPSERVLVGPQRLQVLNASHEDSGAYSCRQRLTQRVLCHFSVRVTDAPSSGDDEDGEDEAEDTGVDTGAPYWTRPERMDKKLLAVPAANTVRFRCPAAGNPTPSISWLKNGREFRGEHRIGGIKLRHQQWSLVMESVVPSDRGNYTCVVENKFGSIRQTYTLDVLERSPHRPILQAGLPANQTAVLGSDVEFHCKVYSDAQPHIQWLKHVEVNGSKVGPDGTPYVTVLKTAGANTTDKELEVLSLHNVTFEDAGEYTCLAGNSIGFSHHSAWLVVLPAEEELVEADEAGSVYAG
How it was run: as §1

[3] = target: T3, FGF-R4 ECD (Homo sapiens, UniProt P22455); assay: single concentration BLI of crude peptides
T3 construct: DNA constructs for the extracellular domain (ECD) of human FGF-; HPC4 (C); made in house; host or cells: HEK 293-6E
T3 sequence (P22455 22-369 limits assumed): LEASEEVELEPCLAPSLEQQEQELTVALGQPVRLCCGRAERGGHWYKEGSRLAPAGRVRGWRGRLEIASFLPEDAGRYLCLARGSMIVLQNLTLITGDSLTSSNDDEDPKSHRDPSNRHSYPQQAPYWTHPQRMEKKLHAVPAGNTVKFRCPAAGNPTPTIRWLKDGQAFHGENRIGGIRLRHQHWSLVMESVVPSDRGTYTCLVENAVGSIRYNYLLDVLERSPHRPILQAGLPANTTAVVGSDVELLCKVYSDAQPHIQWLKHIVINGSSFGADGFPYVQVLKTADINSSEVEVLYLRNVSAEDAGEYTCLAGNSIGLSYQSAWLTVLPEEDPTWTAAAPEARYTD
How it was run: as §1

[4] = crude T18 selection 1 (1:1:1) peptides, single concentration BLI (Table S4), read-out: KD (4)

SMILES	Kd [1] [µM]	Kd [2] [µM]	Kd [3, 4] [µM]	Kd [3] [µM]	Kd ([3]; crude NNK peptides, single concentration BLI (Table S3), read-out: KD (4)) [µM]
CC[C@H](C)[C@@H]1NC(=O)[C@H](Cc2ccc(O)cc2)NC(=O)[C@H](Cc2c[nH]c3ccccc23)NC(=O)[C@H](CCCCN)NC(=O)[C@H](C(C)C)NC(=O)[C@H](Cc2ccccc2)NC(=O)[C@H](CCCCN)NC(=O)[C@H](CC(=O)O)NC(=O)[C@@H](NC(=O)[C@H](CCSC)NC(C)=O)CSSC[C@@H](C(=O)NCC(=O)N[C@@H](CO)C(=O)NCC(=O)N[C@@H](CO)C(=O)N[C@@H](CCC(=O)O)C(=O)N[C@@H](CCC(=O)O)C(=O)NCC(=O)N[C@@H](CO)C(=O)NCC(=O)N[C@@H](CO)C(=O)N[C@@H](CC(=O)O)C(=O)N[C@@H](Cc2ccc(O)cc2)C(=O)N[C@@H](CCCCN)C(=O)N[C@@H](CC(=O)O)C(=O)N[C@@H](CC(=O)O)C(=O)N[C@@H](CC(=O)O)C(=O)N[C@@H](CC(=O)O)C(=O)N[C@@H](CCCCN)C(N)=O)NC(=O)[C@H](Cc2c[nH]cn2)NC(=O)[C@H](CCCNC(=N)N)NC(=O)[C@H](Cc2ccccc2)NC(=O)[C@H](C(C)C)NC1=O (Ac-MCDKFVKWYIVFRHCGSGSEEGSGSDYKDDDDK-NH2; disulfide 2-15)	> 10	> 10	0.001	–	–
CC[C@H](C)[C@@H]1NC(=O)[C@H](CC(C)C)NC(=O)[C@H](CCCCN)NC(=O)[C@H](CO)NC(=O)[C@H](Cc2c[nH]c3ccccc23)NC(=O)[C@@H](NC(=O)[C@H](CCSC)NC(C)=O)CSSC[C@@H](C(=O)NCC(=O)N[C@@H](CO)C(=O)NCC(=O)N[C@@H](CO)C(=O)N[C@@H](CC(=O)O)C(=O)N[C@@H](Cc2ccc(O)cc2)C(=O)N[C@@H](CCCCN)C(=O)N[C@@H](CC(=O)O)C(=O)N[C@@H](CC(=O)O)C(=O)N[C@@H](CC(=O)O)C(=O)N[C@@H](CC(=O)O)C(=O)N[C@@H](CCCCN)C(N)=O)NC(=O)[C@H](CCC(N)=O)NC(=O)[C@H](CO)NC(=O)[C@H](CC(C)C)NC(=O)[C@H](Cc2ccc(O)cc2)NC(=O)[C@H](Cc2ccc(O)cc2)NC(=O)[C@H](CCCCN)NC(=O)[C@H]([C@@H](C)CC)NC1=O (Ac-MCWSKLIIKYYLSQCGSGSDYKDDDDK-NH2; disulfide 2-15)	> 10	> 10	–	0.016	–
CSCC[C@H](NC(C)=O)C(=O)N[C@H]1CSSC[C@@H](C(=O)NCC(=O)N[C@@H](CO)C(=O)NCC(=O)N[C@@H](CO)C(=O)N[C@@H](CC(=O)O)C(=O)N[C@@H](Cc2ccc(O)cc2)C(=O)N[C@@H](CCCCN)C(=O)N[C@@H](CC(=O)O)C(=O)N[C@@H](CC(=O)O)C(=O)N[C@@H](CC(=O)O)C(=O)N[C@@H](CC(=O)O)C(=O)N[C@@H](CCCCN)C(N)=O)NC(=O)[C@H](Cc2c[nH]c3ccccc23)NC(=O)[C@H](CC(C)C)NC(=O)[C@H](CCCNC(=N)N)NC(=O)[C@H](Cc2ccc(O)cc2)NC(=O)[C@H](CC(C)C)NC(=O)[C@H](Cc2c[nH]c3ccccc23)NC(=O)[C@H](CC(C)C)NC(=O)[C@H](CC(=O)O)NC(=O)[C@H](CCCCN)NC(=O)[C@H](CO)NC(=O)[C@H](Cc2ccc(O)cc2)NC(=O)[C@H](CCCCN)NC1=O (Ac-MCKYSKDLWLYRLWCGSGSDYKDDDDK-NH2; disulfide 2-15)	> 10	> 10	0.002	–	–
CC[C@H](C)[C@@H]1NC(=O)[C@H](CC(N)=O)NC(=O)[C@@H](NC(=O)[C@H](CCSC)NC(C)=O)CSSC[C@@H](C(=O)NCC(=O)N[C@@H](CO)C(=O)NCC(=O)N[C@@H](CO)C(=O)N[C@@H](CC(=O)O)C(=O)N[C@@H](Cc2ccc(O)cc2)C(=O)N[C@@H](CCCCN)C(=O)N[C@@H](CC(=O)O)C(=O)N[C@@H](CC(=O)O)C(=O)N[C@@H](CC(=O)O)C(=O)N[C@@H](CC(=O)O)C(=O)N[C@@H](CCCCN)C(N)=O)NC(=O)[C@H](C(C)C)NC(=O)[C@H](CO)NC(=O)[C@H](CC(C)C)NC(=O)[C@H]([C@@H](C)CC)NC(=O)[C@H](CCCCN)NC(=O)[C@H](Cc2ccc(O)cc2)NC(=O)[C@H](CC(C)C)NC(=O)[C@H](CC(C)C)NC1=O (Ac-MCNILLYKILSVCGSGSDYKDDDDK-NH2; disulfide 2-13)	> 10	> 10	–	–	0.105
